{
  "source": "patent US5128376A",
  "about": "“Method for percutaneously administering physiologically active agents using an adjuvant a solvent and a diol moderator” (priority 1990, dated 1992)",
  "key": {"[1]": {"assay": "in vivo", "settings": "rhesus monkey, topical or ocular", "description": "Male rhesus monkeys weighting 10-14 Kg can be used as the subject. An appropriate area of the monkey's chest is shaved 24 hours before drug application.\nDrug formulations comprising the PAEC are applied to a certain area of the chest. The monkey is restrained in a chair to prevent it from touching its chest.\nBlood samples are taken at appropriate intervals after the application. The heparinized blood is centrifuged, and the plasma removed and stored at -20° C. until analyzed.\nThis example show in vivo plasma metoclopramide.HCl levels with a topical gel formulation.\n200 mg of metoclopramide.HCl was dissolved in 4 ml of 10% C12 OH in a 1:1 volume mixture of MP/1,2-propanediol. To this solution was added 160 mg of Klucel (hydroxypropylcellulose type HF; Hercules Inc.) and the same stirred thoroughly to obtain a uniform gel. 1.0 ml of the gel was applied to 49 cm^2 of the chest area of the rhesus monkey; the applied area was left open to the air during the experiment.\nIn Examples 7 and 10, the in vivo Rhesus monkey test earlier described was followed except for modifying as described in Example 7.\n49 cm^2 of a polyester non-woven cloth (230 mg) impregnated with 1 ml of 25% C12 OH in a 2:1 volume mixture of MP/1,2-propanediol containing 200 mg of Indomethacin was applied to the upper back of a rhesus monkey; the applied area was occluded with Saran® film.\nThe plasma level of Indomethacine was analyzed by conventional HPLC.\nThe in vivo procedure of Example 7 was duplicated except for using propranolol as the active agent in place of the NSAID used, e.g., Indomethacin."}, "[2]": {"assay": "In vitro skin penetration study with rat skin diffusion cell technique (active agent flux, 8 hours)", "settings": "25 mg in 1 ml", "text": "Rat full thickness skins were used in the diffusion cell method of Michaels, AlChE Journal, 21 [5], 985-996, 1975. The rat skin was mounted in the diffusion cell in a vertical position between the upstream and the downstream compartments; the exposed area of the skin approximated 4.15 cm^2.\nThe skin was excised from the shaved abdominal site of male albino rats weighing 150~300 g, and washed with normal saline solution after the subcutaneous fat was carefully removed with scissors.\nThe active agent/PAEC solution of known concentration was added to the upper compartment of the cell, which was exposed to the epithelial side of the skin and a normal saline solution was placed in the lower compartment.\nThe penetration rate was studied in a thermostated bath at 30° C. […]\nThe flux of the active agent is given in the terms of μg/cm^2 /8 hours. 25 Volume percent component A with respect to component A and component B volume with or without diols and/or triols was used in the composition along with 2.5 weight percent of the active agent. For purposes of comparison, in one instance the result for an adjuvant alone with a diol and/or triol is given.\n1,2-propanediol was used as a diol moderator. […]\nIn the following Examples 6, 8, 9, 11 and 12, in vitro transdermal penetration was again analyzed followed the method of Michaels, AIChE Journal, 21, [5], pp. 985-996 (1975), according to the earlier described procedure. The sample volume was 1 ml unless otherwise indicated and flux of the active agent is given in μg/cm^2 /8 hours. Al percents are volume percents based on the total volume of the system unless otherwise indicated.\n25 mg of the NSAID, Indomethacin, Diclofenac sodium or Ibuprofen in 1 ml of various systems were used. […]"}},
  "note": "Structures can show the parent of a compound that is named as a salt. Where two headings read alike, the source gives them in different places.",
  "data": [
    {"molecule": "CC(C)NCC(O)COc1cccc2ccccc12", "note": "(centres unmarked) [propranolol]", "values": [
      {"measurement": "concentration at 1 h", "setting": "[1]; plasma, 200 mg, 1 hour after application, procedure of Example 7 (25% C12 OH in 2:1 MP/1,2-propanediol, 49 cm^2, upper back, occluded), read-out: Propranolol plasma level", "result": 30, "unit": "ng/mL"},
      {"measurement": "concentration at 3 h", "setting": "[1]; plasma, 200 mg, 3 hours after application, procedure of Example 7 (25% C12 OH in 2:1 MP/1,2-propanediol, 49 cm^2, upper back, occluded), read-out: Propranolol plasma level", "result": 115, "unit": "ng/mL"},
      {"measurement": "concentration at 5 h", "setting": "[1]; plasma, 200 mg, 5 hours after application, procedure of Example 7 (25% C12 OH in 2:1 MP/1,2-propanediol, 49 cm^2, upper back, occluded), read-out: Propranolol plasma level", "result": 130, "unit": "ng/mL"},
      {"measurement": "concentration at 7 h", "setting": "[1]; plasma, 200 mg, 7 hours after application, procedure of Example 7 (25% C12 OH in 2:1 MP/1,2-propanediol, 49 cm^2, upper back, occluded), read-out: Propranolol plasma level", "result": 90, "unit": "ng/mL"}
    ]},
    {"molecule": "COc1ccc2c(c1)c(CC(=O)O)c(C)n2C(=O)c1ccc(Cl)cc1", "note": "[Indomethacin]", "values": [
      {"measurement": "Relative Flux", "setting": "[2]; Indomethacin, 25% C12 OH in MP (reference)", "result": 1.0},
      {"measurement": "Relative Flux", "setting": "[2]; Indomethacin, 25% C12 OH in a 2:1 volume mixture of MP/1,2-propanediol, relative to 25% C12 OH in MP", "result": 0.73},
      {"measurement": "concentration at 1 h", "setting": "[1]; in vivo, 1 hour after application, 200 mg in 1 ml 25% C12 OH in 2:1 MP/1,2-propanediol, 49 cm^2 cloth, upper back, occluded, read-out: Indomethacin plasma level", "result": 619, "unit": "ng/mL"},
      {"measurement": "concentration at 3 h", "setting": "[1]; in vivo, 3 hours after application, 200 mg in 1 ml 25% C12 OH in 2:1 MP/1,2-propanediol, 49 cm^2 cloth, upper back, occluded, read-out: Indomethacin plasma level", "result": 452, "unit": "ng/mL"},
      {"measurement": "concentration at 5 h", "setting": "[1]; in vivo, 5 hours after application, 200 mg in 1 ml 25% C12 OH in 2:1 MP/1,2-propanediol, 49 cm^2 cloth, upper back, occluded, read-out: Indomethacin plasma level", "result": 388, "unit": "ng/mL"},
      {"measurement": "concentration at 7 h", "setting": "[1]; in vivo, 7 hours after application, 200 mg in 1 ml 25% C12 OH in 2:1 MP/1,2-propanediol, 49 cm^2 cloth, upper back, occluded, read-out: Indomethacin plasma level", "result": 429, "unit": "ng/mL"}
    ]},
    {"molecule": "CC(C)Cc1ccc(C(C)C(=O)O)cc1", "note": "(centres unmarked) [Ibuprofen]", "values": [
      {"measurement": "Relative Flux", "setting": "[2]; Ibuprofen, 25% C12 OH in N-methyl piperidone (reference)", "result": 1.0},
      {"measurement": "Relative Flux", "setting": "[2]; Ibuprofen, 25% C12 OH in a 2:1 volume mixture of N-methyl piperidone/1,2-propanediol, relative to 25% C12 OH in N-methyl piperidone", "result": 0.48}
    ]},
    {"molecule": "CCN(CC)CCNC(=O)c1cc(Cl)c(N)cc1OC", "note": "[metoclopramide.HCl]", "values": [
      {"measurement": "concentration at 1 h", "setting": "[1]; in vivo", "result": 75, "unit": "ng/mL"},
      {"measurement": "concentration at 2 h", "setting": "[1]; in vivo", "result": 146, "unit": "ng/mL"},
      {"measurement": "concentration at 3 h", "setting": "[1]; in vivo", "result": 178, "unit": "ng/mL"},
      {"measurement": "concentration at 5 h", "setting": "[1]; in vivo", "result": 121, "unit": "ng/mL"},
      {"measurement": "concentration at 7 h", "setting": "[1]; in vivo", "result": 93, "unit": "ng/mL"}
    ]}
  ]
}
